Earlier results, collected in patent publication US9598354B2, “Fumarate compounds, pharmaceutical compositions thereof, and methods of use” (priority 2015, dated 2017).

aqueous solubility: poor
Compound: COC(=O)/C=C/C(=O)OC [DMF, dimethylfumarate]
